In test [1] the target is human RORγt ligand binding domain (RORγt LBD) (Homo sapiens (Human), UniProt P51449). In words: RORγt ThermoFluor® assay (thermal shift binding). The procedure, abridged:
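Thermal shift with 0.065 mg/mL RORγt LBD and 60 μM 1,8-ANS in 100 mM Hepes pH 7.0, 10 mM NaCl, 2.5 mM GSH, 0.002% Tween-20.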
For orientation: In DSF a fluorescence change marks the thermal transition of the protein.

The target in a further test is full-length human RORγt (Homo sapiens (Human), UniProt P51449). In words: RORγt (full-length human) reporter assay, conditions A or B, HEK293T cells. Format: cell-based. Conditions: for inhibition at […]: 0.22 μM compound concentration (footnote *******); for IC50: RORγt (FL) Reporter Assay A or B, IC50, HEK293T cells; for inhibition at 6 µM: read-out: RORγt (FL) Reporter Assay A or B, % inhibition @ 6 μM; for inhibition at 2 µM: 2 μM compound concentration. In short, it runs like this:
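Dual-luciferase read-out was taken after an overnight (16–20 h) compound exposure. Firefly data were scaled between DMSO-only and saturating reference compound, Renilla-normalized, then plotted against concentration for IC50.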
Background: A reporter such as luciferase makes a cellular process visible.

The mark [2] stands for this setting: HEK-293T, read-out: RORγt (FL) Reporter Assay A or B, % inhibition.
Where [3] appears, read: HEK-293T, 6 μM compound concentration.
Setting [4] is: read-out: ThermoFluor® Assay, Kd.

Read-outs that look alike come from different tables or passages of the source.

human RORγt ligand binding domain (RORγt LBD), sequence (P51449 other isoform, or with tags, fused parts or gaps): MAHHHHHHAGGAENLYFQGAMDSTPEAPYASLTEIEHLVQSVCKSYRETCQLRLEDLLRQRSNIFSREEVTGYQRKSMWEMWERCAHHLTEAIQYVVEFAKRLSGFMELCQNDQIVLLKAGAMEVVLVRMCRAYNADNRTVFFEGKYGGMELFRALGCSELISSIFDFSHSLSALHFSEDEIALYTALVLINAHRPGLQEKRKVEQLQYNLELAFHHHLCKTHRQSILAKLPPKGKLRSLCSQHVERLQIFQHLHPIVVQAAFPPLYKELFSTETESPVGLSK
full-length human RORγt, sequence (P51449 other isoform, or with tags, fused parts or gaps): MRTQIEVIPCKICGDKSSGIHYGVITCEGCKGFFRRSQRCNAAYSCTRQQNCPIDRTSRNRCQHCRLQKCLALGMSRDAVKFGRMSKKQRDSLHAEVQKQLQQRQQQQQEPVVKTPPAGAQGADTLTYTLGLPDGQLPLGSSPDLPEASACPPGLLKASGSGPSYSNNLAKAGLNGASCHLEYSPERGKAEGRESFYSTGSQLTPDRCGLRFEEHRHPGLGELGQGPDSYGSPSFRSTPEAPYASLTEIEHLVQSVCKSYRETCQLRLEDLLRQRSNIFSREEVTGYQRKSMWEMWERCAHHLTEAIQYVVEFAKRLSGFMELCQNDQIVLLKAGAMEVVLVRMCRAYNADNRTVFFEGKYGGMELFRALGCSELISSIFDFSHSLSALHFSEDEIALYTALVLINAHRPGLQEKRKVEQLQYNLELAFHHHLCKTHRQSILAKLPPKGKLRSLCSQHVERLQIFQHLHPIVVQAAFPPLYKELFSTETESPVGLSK

One may read the Kd as the equilibrium constant for the complex coming apart. For orientation: inhibition means the drop in the measured response relative to a control, in per cent. The IC50 is the concentration that gives 50% inhibition. Regarding `CCOC(=O)[C@]1(CNC(=O)c2nn(CC)c(-c3ccc(CC(C)(C)C(F)(F)F)cc3OC(F)F)c2Cl)CC[C@@H](S(C)(=O)=O)CC1` [Example 120, Ethyl (1r*,4r*)-1-((4-chloro-5-(2-(difluoromethoxy)-4-(3,3,3-trifluoro-2,2-dimethylpropyl)phenyl)-1-ethyl-1H-pyrazole-3-carboxamido)methyl)-4-(methylsulfonyl)cyclohexane-1-carboxylate], in test [1] (ThermoFluor® Assay, Kd), the Kd was 10 nM. Moreover, at full-length human RORγt (setting [2]), the inhibition at […] amounted to 92%. This compound also came in with a concentration for half-maximal inhibition (IC50) at full-length human RORγt of 28 nM.
Turning to `CCn1nc(C(=O)NC[C@]2(C(=O)O)CC[C@H](S(C)(=O)=O)CC2)c(Cl)c1-c1ccc(CC(C)(C)C(F)(F)F)cc1OC(F)F` [Example 121, (1r*,4r*)-1-((4-Chloro-5-(2-(difluoromethoxy)-4-(3,3,3-trifluoro-2,2-dimethylpropyl)phenyl)-1-ethyl-1H-pyrazole-3-carboxamido)methyl)-4-(methylsulfonyl)cyclohexane-1-carboxylic Acid], the Kd in test [1] (ThermoFluor® Assay, Kd) is 43 nM. Also, the inhibition at 6 µM on full-length human RORγt (setting [3]) stood at 106%. Besides, at full-length human RORγt, the IC50 turned out to be 830 nM.
For the compound `CCn1nc(C(=O)NC[C@]2(O)CC[C@@H](S(C)(=O)=O)CC2)c(C#N)c1-c1ccc(CC(C)C(F)(F)F)cc1OC` (stereo partly drawn) [Example 122, 4-Cyano-1-ethyl-N-(((1s,4s)-1-hydroxy-4-(methylsulfonyl)cyclohexyl)methyl)-5-(2-methoxy-4-(3,3,3-trifluoro-2-methylpropyl)phenyl)-1H-pyrazole-3-carboxamide], the Kd in test [1] (setting [4]) is 27 nM. For the same compound, the inhibition at 6 µM on full-length human RORγt (setting [3]) came out at 104%. The same compound displayed an IC50 against full-length human RORγt of 150 nM.
Regarding `CCn1nc(C(=O)NC[C@H]2CC[C@H](S(C)(=O)=O)CC2)c(C#N)c1-c1ccc(CC(C)C(F)(F)F)cc1OC` (stereo partly drawn) [Example 123, 4-Cyano-1-ethyl-5-(2-methoxy-4-(3,3,3-trifluoro-2-methylpropyl)phenyl)-N-(((1r,4r)-4-(methylsulfonyl)cyclohexyl)methyl)-1H-pyrazole-3-carboxamide], the dissociation constant Kd in test [1] (setting [4]) was found to be 9.6 nM. For the same compound, on full-length human RORγt (setting [2]), the inhibition at 2 µM turned out to be 85%. The compound further returned a half-inhibitory concentration (IC50) against full-length human RORγt of 35 nM.
On to `CCn1nc(C(=O)NC[C@]2(O)CC[C@@H](S(C)(=O)=O)CC2)c(C#N)c1-c1ccc(CCC(F)(F)F)cc1OC` [Example 124, 4-Cyano-1-ethyl-N-(((1s,4s)-1-hydroxy-4-(methylsulfonyl)cyclohexyl)methyl)-5-(2-methoxy-4-(3,3,3-trifluoropropyl)phenyl)-1H-pyrazole-3-carboxamide], for which, in test [1] (setting [4]), the equilibrium dissociation constant (Kd) came out at 170 nM. Moreover, the inhibition at 6 µM at full-length human RORγt (setting [3]) was determined as 83%. For the same compound, at full-length human RORγt, half-maximal inhibition (IC50) required 770 nM.
For the compound `CCn1nc(C(=O)NC[C@H]2CC[C@H](S(C)(=O)=O)CC2)c(C#N)c1-c1ccc(CCC(F)(F)F)cc1OC` [Example 125, 4-Cyano-1-ethyl-5-(2-methoxy-4-(3,3,3-trifluoropropyl)phenyl)-N-(((1r,4r)-4-(methylsulfonyl)cyclohexyl)methyl)-1H-pyrazole-3-carboxamide], the Kd in test [1] (setting [4]) worked out at 44 nM. Moreover, the inhibition at 6 µM on full-length human RORγt (HEK-293T) is 85%. The same compound returned a 50% inhibitory concentration (IC50) at full-length human RORγt of 230 nM.
For `CCn1nc(C(=O)NC[C@]2(O)CC[C@@H](S(C)(=O)=O)CC2)c(C#N)c1-c1ccc(CC(C)(C)C(F)(F)F)cc1OC` [Example 126, 4-Cyano-1-ethyl-N-(((1s,4s)-1-hydroxy-4-(methylsulfonyl)cyclohexyl)methyl)-5-(2-methoxy-4-(3,3,3-trifluoro-2,2-dimethylpropyl)phenyl)-1H-pyrazole-3-carboxamide], in test [1] (setting [4]), the Kd was determined as 12 nM. Also, the inhibition at 6 µM at full-length human RORγt (HEK-293T) turned out to be 101%. The same compound had a concentration for half-maximal inhibition (IC50) against full-length human RORγt of 84 nM.
Consider `CCn1nc(C(=O)NC[C@H]2CC[C@H](S(C)(=O)=O)CC2)c(C#N)c1-c1ccc(CC(C)(C)C(F)(F)F)cc1OC` [Example 127, 4-Cyano-1-ethyl-5-(2-methoxy-4-(3,3,3-trifluoro-2,2-dimethylpropyl)phenyl)-N-(((1r,4r)-4-(methylsulfonyl)cyclohexyl)methyl)-1H-pyrazole-3-carboxamide], for which the Kd in test [1] (setting [4]) amounted to 3.7 nM. In addition, the inhibition at 0.67 µM at full-length human RORγt (HEK-293T, 0.67 μM compound concentration (footnote ****), read-out: RORγt (FL) Reporter Assay A or B, % inhibition) was 94%. In addition, the IC50 against full-length human RORγt is 20 nM.
Regarding `CCn1nc(C(=O)NCC2(N)CCC(S(C)(=O)=O)CC2)c(Cl)c1-c1ccc(CC(C)C(F)(F)F)cc1OC` (stereo not drawn) [Example 128, N-((1-Amino-4-(methylsulfonyl)cyclohexyl)methyl)-4-chloro-1-ethyl-5-(2-methoxy-4-(3,3,3-trifluoro-2-methylpropyl)phenyl)-1H-pyrazole-3-carboxamide], the dissociation constant Kd in test [1] (setting [4]) is 140 nM. Moreover, the inhibition at 2 µM at full-length human RORγt (setting [2]) turned out to be 63%. Further, the IC50 against full-length human RORγt was determined as 850 nM.
Take `CCc1c(C(=O)NC[C@H]2CC[C@H](S(C)(=O)=O)CC2)nn(CC)c1-c1ccc(N[C@H](C)C(F)(F)F)cc1OC` [Example 130, 1,4-Diethyl-5-(2-methoxy-4-(((R)-1,1,1-trifluoropropan-2-yl)amino)phenyl)-N-(((r,4R)-4-(methylsulfonyl)cyclohexyl)methyl)-1H-pyrazole-3-carboxamide]: the equilibrium dissociation constant (Kd) in test [1] (setting [4]) is 9.9 nM. Also, the inhibition at 2 µM on full-length human RORγt (setting [2]) was 100%. Inhibition against full-length human RORγt was half-maximal at 61 nM (IC50).
In the case of `CCn1nc(C(=O)NC[C@H]2CC[C@H](S(C)(=O)=O)CC2)c(C(C)C)c1-c1ccc(N[C@H](C)C(F)(F)F)cc1OC` [Example 131, 1-Ethyl-4-isopropyl-5-(2-methoxy-4-(((R)-1,1,1-trifluoropropan-2-yl)amino)phenyl)-N-(((1r,4R)-4-(methylsulfonyl)cyclohexyl)methyl)-1H-pyrazole-3-carboxamide], in test [1] (setting [4]), the Kd came to 33 nM. For the same compound, on full-length human RORγt (setting [2]), the inhibition at 2 µM stood at 100%. For the same compound, the IC50 on full-length human RORγt came to 140 nM.
Regarding `CCn1nc(C(=O)NC[C@H]2CC[C@H](S(=O)(=O)CC)CC2)c(Cl)c1-c1ccc(CC(C)(C)C(F)(F)F)cc1OC(F)F` [Example 133, 4-Chloro-5-(2-(difluoromethoxy)-4-(3,3,3-trifluoro-2,2-dimethylpropyl)phenyl)-1-ethyl-N-(((1r,4r)-4-(ethylsulfonyl)cyclohexyl)methyl)-1H-pyrazole-3-carboxamide], the equilibrium dissociation constant (Kd) in test [1] (ThermoFluor® Assay, Kd) was 0.2 nM. In addition, on full-length human RORγt (setting [2]), the inhibition at […] amounted to 107%. This compound also had an IC50 on full-length human RORγt of 4.6 nM.
For the compound `CCn1nc(C(=O)NC[C@]2(C#N)CC[C@@H](S(C)(=O)=O)CC2)c(Cl)c1-c1ccc(CC(C)(C)C(F)(F)F)cc1OC(F)F` [Example 134, 4-Chloro-N-(((1s*,4s*)-1-cyano-4-(methylsulfonyl)cyclohexyl)methyl)-5-(2-(difluoromethoxy)-4-(3,3,3-trifluoro-2,2-dimethylpropyl)phenyl)-1-ethyl-1H-pyrazole-3-carboxamide], the Kd in test [1] (setting [4]) is 0.2 nM. Moreover, the inhibition at […] at full-length human RORγt (setting [2]) was determined as 102%. On full-length human RORγt, this compound yielded a 50% inhibitory concentration (IC50) of 1.3 nM.
`CC(C)(O)Cn1nc(C(=O)NC[C@]2(O)CC[C@@H](S(C)(=O)=O)CC2)c(Cl)c1-c1ccc(CC(C)(C)C(F)(F)F)cc1OC(F)F` [Example 144, 4-Chloro-5-(2-(difluoromethoxy)-4-(3,3,3-trifluoro-2,2-dimethylpropyl)phenyl)-1-(2-hydroxy-2-methylpropyl)-N-(((1s,4s)-1-hydroxy-4-(methylsulfonyl)cyclohexyl)methyl)-1H-pyrazole-3-carboxamide]: the equilibrium dissociation constant (Kd) in test [1] (setting [4]) was determined as 11 nM. The inhibition at 6 µM at full-length human RORγt (setting [3]) stood at 112%. At full-length human RORγt, this compound gave a half-inhibitory concentration (IC50) of 31 nM.

For the origin of these results see patent US10975037B2 (priority 2018, dated 2021).
